Literature values, collected in PubChem BioAssay AID1259409 (Chemical Carcinogenesis Research Information System (CCRIS), 2018).

Test system: rodent chemically induced tumor inhibition, incidence and multiplicity
Assay: CCRIS tumor inhibitor studies
Details: Route [Inhibitor]: ORAL; for tumour outcome (control, treated, inhibition, significance): Promoter: NONE USED

In the case of `O=[Se](O)O`, the “tumour outcome (control, treated, inhibition, significance)” value (Carcinogen: AZOXYMETHANE, 25843-45-2, Dose [Inhibitor]: 2.5 PPM IN DIET BEGINNING 1 WK POST CARCINOGEN DOSE FOR DURATION OF STUDY (STUDY DURATION: 39 WK), Species: RAT, Strain/Sex: F344/MALE, Target Tissue: Type of Lesion: DUODENUM: ADENOCARCINOMA, Dose [Carcinogen]: 15 MG/KG BW 1/WK FOR 2 WK) is listed as 7/27 (26%), 8/27 (30%), -15%, not significant, the “tumour outcome (control, treated, inhibition, significance)” value (Carcinogen: AZOXYMETHANE, 25843-45-2, Dose [Inhibitor]: 2.5 PPM IN DIET BEGINNING 1 WK POST CARCINOGEN DOSE FOR DURATION OF STUDY (STUDY DURATION: 39 WK), Species: RAT, Strain/Sex: F344/MALE, Target Tissue: Type of Lesion: DUODENUM: ADENOMA, Dose [Carcinogen]: 15 MG/KG BW 1/WK FOR 2 WK) is listed as 3/27 (11%), 5/27 (19%), -73%, not significant and the “tumour outcome (control, treated, inhibition, significance)” value (Carcinogen: AZOXYMETHANE, 25843-45-2, Dose [Inhibitor]: 2.5 PPM IN DIET BEGINNING 3 WK PRIOR TO CARCINOGEN DOSE AND CONTINUING FOR 1 WK POST CARCINOGEN DOSE (STUDY DURATION: 39, Species: RAT, Strain/Sex: F344/MALE, Target Tissue: Type of Lesion: COLON: ADENOCARCINOMA, Dose [Carcinogen]: 15 MG/KG BW 1/WK FOR 2 WK) is listed as 10/27 (37%), 9/27 (33%), 11%, not significant. The “tumour outcome (control, treated, inhibition, significance)” value (Carcinogen: AZOXYMETHANE, 25843-45-2, Dose [Inhibitor]: 2.5 PPM IN DIET BEGINNING 3 WK PRIOR TO CARCINOGEN DOSE AND CONTINUING FOR 1 WK POST CARCINOGEN DOSE (STUDY DURATION: 39, Species: RAT, Strain/Sex: F344/MALE, Target Tissue: Type of Lesion: COLON: ADENOMA, Dose [Carcinogen]: 15 MG/KG BW 1/WK FOR 2 WK) was 16/27 (59%), 13/27 (48%), 19%, not significant, the “tumour outcome (control, treated, inhibition, significance)” value (Carcinogen: AZOXYMETHANE, 25843-45-2, Dose [Inhibitor]: 2.5 PPM IN DIET BEGINNING 3 WK PRIOR TO CARCINOGEN DOSE AND CONTINUING FOR 1 WK POST CARCINOGEN DOSE (STUDY DURATION: 39, Species: RAT, Strain/Sex: F344/MALE, Target Tissue: Type of Lesion: DUODENUM: ADENOCARCINOMA, Dose [Carcinogen]: 15 MG/KG BW 1/WK FOR 2 WK) was 7/27 (26%), 13/27 (48%), -85%, not significant and the “tumour outcome (control, treated, inhibition, significance)” value (Carcinogen: AZOXYMETHANE, 25843-45-2, Dose [Inhibitor]: 2.5 PPM IN DIET BEGINNING 3 WK PRIOR TO CARCINOGEN DOSE AND CONTINUING FOR 1 WK POST CARCINOGEN DOSE (STUDY DURATION: 39, Species: RAT, Strain/Sex: F344/MALE, Target Tissue: Type of Lesion: DUODENUM: ADENOMA, Dose [Carcinogen]: 15 MG/KG BW 1/WK FOR 2 WK) was 3/27 (11%), 6/27 (22%), -100%, not significant. For the same molecule, the “tumour outcome (control, treated, inhibition, significance)” value (Carcinogen: AZOXYMETHANE, 25843-45-2, Dose [Inhibitor]: O.5 PPM IN DIET BEGINNING 3 WK PRIOR TO CARCINOGEN DOSE AND CONTINUING FOR 1 WK POST CARCINOGEN DOSE (STUDY DURATION: 39, Species: RAT, Strain/Sex: F344/MALE, Target Tissue: Type of Lesion: COLON: ADENOCARCINOMA, Dose [Carcinogen]: 15 MG/KG BW 1/WK FOR 2 WK) was 10/27 (37%), 8/27 (30%), 19%, not significant, the “tumour outcome (control, treated, inhibition, significance)” value (Carcinogen: BENZO[A]PYRENE, 50-32-8, Dose [Inhibitor]: 4 PPM IN DRINKING WATER DAILY FOR 12 MO STARTING 12 MO BEFORE CARCINOGEN TREATMENT (STUDY DURATION: 67 WK), Species: MOUSE, Strain/Sex: BALB/MALE, Target Tissue: Type of Lesion: INJECTION SITE: SARCOMA, Dose [Carcinogen]: 4 UG/G BW ONCE) was 31/50 (62%), 14/50 (28%), 55% and the outcome (Carcinogen: DIETHYLNITROSAMINE [55-18-5], Dose [Inhibitor]: 5 PPM IN DRINKING WATER, 3 WK AFTER PARTIAL HEPATECTOMY TO END AT 12 MO (STUDY DURATION: 12 MO), DRINKING WATER, Species: RAT, Strain/Sex: F344, Target Tissue: Type of Lesion: LIVER: TUMOR DENSITY, Dose [Carcinogen]: 200 MG/KG BW ONCE, Promoter: 2-ACETYLAMINOFLUORENE [53-96-3]) was 26, 14, 46.2%, p=0.01. The “tumour outcome (control, treated, inhibition, significance)” value (Carcinogen: DIETHYLNITROSAMINE, 55-18-5, Dose [Inhibitor]: 0, 1 MG/L IN DRINKING WATER FOR DURATION OF STUDY BEGINNING 7 D PRIOR TO FIRST CARCINOGEN DOSE (STUDY DURATION: 6 MO), Species: RAT, Strain/Sex: BD6/FEMALE, Target Tissue: Type of Lesion: ESOPHAGUS: TUMOR, Dose [Carcinogen]: 80 MG/KG BW 1/WK FOR 8 WK) was 30%, 0%, 100%, p<0.05, the “tumour outcome (control, treated, inhibition, significance)” value (Carcinogen: DIETHYLNITROSAMINE, 55-18-5, Dose [Inhibitor]: 0, 5 MG/L IN DRINKING WATER FOR DURATION OF STUDY BEGINNING 7 D PRIOR TO CARCINOGEN TREATMENT (STUDY DURATION: 6 MO), Species: RAT, Strain/Sex: BD6/FEMALE, Target Tissue: Type of Lesion: ESOPHAGUS: TUMOR, Dose [Carcinogen]: 80 MG/KG BW 1/WK FOR 9 WK) was 50%, 51%, -2%, not significant and the “tumour outcome (control, treated, inhibition, significance)” value (Carcinogen: DIETHYLNITROSAMINE, 55-18-5, Dose [Inhibitor]: 0, 5 MG/L IN DRINKING WATER FOR DURATION OF STUDY BEGINNING 7 D PRIOR TO CARCINOGEN TREATMENT (STUDY DURATION: 6 MO), Species: RAT, Strain/Sex: BD6/FEMALE, Target Tissue: Type of Lesion: LIVER: TUMOR, Dose [Carcinogen]: 80 MG/KG BW 1/WK FOR 9 WK) was 100%, 95%, 5%, not significant. For the same molecule, the “tumour outcome (control, treated, inhibition, significance)” value (Carcinogen: DIETHYLNITROSAMINE, 55-18-5, Dose [Inhibitor]: 0, 5 MG/L IN DRINKING WATER FOR DURATION OF STUDY BEGINNING 7 D PRIOR TO FIRST CARCINOGEN DOSE (STUDY DURATION: 6 MO), Species: RAT, Strain/Sex: BD6/FEMALE, Target Tissue: Type of Lesion: ESOPHAGUS: TUMOR, Dose [Carcinogen]: 80 MG/KG BW 1/WK FOR 8 WK) was 31%, 50%, -61%, not significant, the “tumour outcome (control, treated, inhibition, significance)” value (Carcinogen: DIETHYLNITROSAMINE, 55-18-5, Dose [Inhibitor]: 0, 5 MG/L IN DRINKING WATER FOR DURATION OF STUDY BEGINNING 7 D PRIOR TO FIRST CARCINOGEN DOSE (STUDY DURATION: 6 MO), Species: RAT, Strain/Sex: BD6/FEMALE, Target Tissue: Type of Lesion: LIVER: TUMOR, Dose [Carcinogen]: 80 MG/KG BW 1/WK FOR 8 WK) was 94%, 94%, 0%, not significant and the “tumour outcome (control, treated, inhibition, significance)” value (Carcinogen: DIETHYLNITROSAMINE, 55-18-5, Dose [Inhibitor]: 0, 10 MG/L IN DRINKING WATER FOR DURATION OF STUDY BEGINNING 4 D POST CARCINOGEN TREATMENT (STUDY DURATION: 6 M0), Species: RAT, Strain/Sex: BD6/FEMALE, Target Tissue: Type of Lesion: LIVER: TUMOR, Dose [Carcinogen]: 80 MG/KG BW 1/WK FOR 9 WK) was 100%, 96%, 4%, not significant.
